This note sets out measurements from patent US10946074B2, “GLP-1 derivatives and uses thereof” (Novo Nordisk A/S, priority 2016, dated 2021).

SMILES strings stand for the structures. Read-outs that look alike come from different tables or passages of the source. Starred links: 1 amine or outer side, 2 acyl side, 3 side chain; linkers in the order of their positions; H or OH if unused. Residues, ends and D or L forms follow the SMILES beside them. Groups on a side chain read outwards from the residue. *: point of attachment. Undecanoyl(11-OPh(4-COOH)) = O=C(O)c1ccc(OCCCCCCCCCCC(=O)*)cc1; γGlu = O=C(O)[C@H](CCC(=O)[*:2])N[*:1]; AEEA = NCCOCCOCC(=O)O

Experiment [1] deals with T1, human GLP-1 receptor (Homo sapiens, UniProt P43220).
T1 construct: expressed in transfected cells; host or cells: membranes of BHK cells (parent BHKTS13), clone FCW467-12A
T1 sequence (P43220 24-463): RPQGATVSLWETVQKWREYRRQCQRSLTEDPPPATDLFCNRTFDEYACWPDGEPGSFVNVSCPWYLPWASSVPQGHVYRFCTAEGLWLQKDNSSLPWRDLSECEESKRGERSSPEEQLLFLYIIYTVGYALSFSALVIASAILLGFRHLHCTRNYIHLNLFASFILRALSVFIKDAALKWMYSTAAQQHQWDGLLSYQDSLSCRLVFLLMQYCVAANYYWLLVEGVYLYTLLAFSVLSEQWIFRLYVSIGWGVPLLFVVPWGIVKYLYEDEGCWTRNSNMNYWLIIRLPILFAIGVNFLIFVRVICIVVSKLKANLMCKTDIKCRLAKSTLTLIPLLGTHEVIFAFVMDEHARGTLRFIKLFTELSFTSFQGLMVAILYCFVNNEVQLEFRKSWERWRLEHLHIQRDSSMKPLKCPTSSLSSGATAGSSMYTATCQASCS
Briefly: In vitro potency, CRE luciferase reporter gene assay in BHK cells expressing the human GLP-1 receptor. The format is cell-based. Conditions: 3 h, 0% HSA, average of at least three replicates. Here is the method:
When assay incubation is completed the luciferase substrate (luciferin) is added and the enzyme converts luciferin to oxyluciferin to produce bioluminescence. The luminescence is measured as the readout for the assay.
The cells were cultured at 5% CO2 in cell culture medium. They were aliquoted and stored in liquid nitrogen. Before each assay an aliquot was taken up and washed twice in PBS before being suspended at the desired concentration in the assay specific buffer. For 96-well plates the suspension was made to give a final concentration of 5×10^3 cells/well.
Assay medium consisted of DMEM w/o phenol red, 10 mM Hepes and 1× Glutamax. The assay buffer consisted of 2% w/v ovalbumin and 0.2% v/v Pluronic F-68 in assay medium.
3) Cells were counted and adjusted to 5×10^3 cells/50 μl (1×10^5 cells/ml) in assay medium. A 50 μl aliquot of cells was transferred to each well in the assay plate.
4) Stocks of the test compounds and reference compounds were diluted to a concentration of 0.2 μM in assay buffer. […] Compounds were tested at the following final concentrations: 1×10^−7 M, 1×10^−8 M; 1×10^−9 M, 1×10^−10 M, 1×10^−11 M, 1×10^−12 M, 1×10^−13 M, and 1×10^−14 M. 6) The assay plate was incubated for 3 h in a 5% CO2 incubator at 37° C. […] 8) A 100 μl aliquot of steadylite plus reagent was added to each well of the assay plate. 9) Each assay plate was covered with aluminum foil to protect it from light and shaken for 30 min at room temperature. 10) Each assay plate was read in a BioTek Synergy 2 Multi-Mode Reader. Calculations and Results
The data from the BioTek Synergy 2 Multi-Mode Reader were transferred to GraphPad Prism software. The software performs a non-linear regression (log(agonist) vs. response (three parameters)).
A minimum of three replicates were measured for each sample. The reported EC50 values are averages of the measured values for each compound.
(In a reporter assay the amount or activity of a reporter protein is the signal.)

In experiment [2] the target is T1, human GLP-1 receptor. Briefly: GLP-1 receptor binding, competitive binding assay with 125I-GLP-1 on isolated membranes (SPA).
Procedure: The receptor binding is reported as the concentration at which half of the labelled ligand is displaced from the receptor, the IC50 value.
Buffer 1 consisted of 20 mM Na-HEPES plus 10 mM EDTA and pH was adjusted to 7.4. Buffer 2 consisted of 20 mM Na-HEPES plus 0.1 mM EDTA and pH was adjusted to 7.4. Assay buffer consisted of 50 mM HEPES supplemented with 5 mM EGTA, 5 mM MgCl2, 0.005% w/v Tween 20 and pH was adjusted to 7.4. An 8% albumin stock consisted of HSA dissolved at 8% (w/v) in assay buffer. An 0.02% albumin stock consisted of HSA dissolved at 0.02% (w/v) in assay buffer.
To make a membrane preparation the cells were grown to approximately 80% confluence. The cells were washed twice in phosphate-buffered saline and harvested. The cells were pelleted using a brief centrifugation and the cell pellet was kept on ice. The cell pellet was homogenised with ULTRA-THURRAX™ dispersing instrument for 20-30 seconds in a suitable amount of buffer 1 (e.g., 10 ml). The homogenate was centrifuged for 15 minutes. The pellet was re-suspended (homogenised) in 10 ml buffer 2 and centrifuged. This step was repeated once more. The resulting pellet was re-suspended in buffer 2 and the protein concentration was determined. The membranes were aliquoted and stored at minus 80° C.
For the receptor binding assay in the presence of low HSA (0.005% (w/v)) 50 μl of the assay buffer was added to each well of an assay plate. Assay continued with step 3.
For the receptor binding assay in the presence of high HSA (2% (w/v)) 50 μl of the 8% (w/v) albumin stock was added to each well of an assay plate. Assay continued with step 3.
Cell membrane aliquots were thawed and diluted to their working concentration. Fifty μl were added to each well in the assay plate.
WGA SPA beads were suspended in assay buffer at 20 mg/ml. The suspension was diluted to 10 mg/ml in assay buffer just prior to addition to the assay plate. Fifty μl were added to each well in the assay plate.
A 25 μl aliquot was reserved for measuring total counts/well.
The assay plate was incubated for 2 h at 30° C.
The assay plate was centrifuged for 10 min.
The assay plate was read in a Packard TopCount NXT instrument.
Individual replicates were analysed using non-linear regression in GraphPad Prism. IC50 values were calculated by the software and reported in nM. A minimum of two replicates was measured for each sample. The reported values are averages of all of the measured values for each compound.
Setting [3] is: high HSA (2.0% (w/v) final assay concentration), read-out: GLP-1 receptor binding High HSA IC50.
Where [4] appears, read: low HSA (max. 0.001% (w/v) final assay concentration), read-out: GLP-1 receptor binding Low HSA IC50.
Setting [5] is: GLP-1 receptor binding Low HSA IC50 (nM), low HSA (max. 0.001% (w/v) final assay concentration).

Take `CC[C@H](C)[C@H](NC(=O)[C@H](Cc1ccccc1)NC(=O)[C@H](CCC(=O)O)NC(=O)[C@H](CCCNC(=N)N)NC(=O)[C@H](C)NC(=O)[C@H](C)NC(=O)[C@H](CCC(N)=O)NC(=O)[C@H](CCC(=O)O)NC(=O)[C@H](CCC(=O)O)NC(=O)[C@H](CC(C)C)NC(=O)[C@H](Cc1ccc(O)cc1)NC(=O)[C@H](CO)NC(=O)[C@H](CO)NC(=O)[C@@H](NC(=O)[C@H](CC(=O)O)NC(=O)[C@H](CO)NC(=O)[C@@H](NC(=O)[C@H](Cc1ccccc1)NC(=O)[C@@H](NC(=O)CNC(=O)[C@H](CCC(=O)O)NC(=O)C(C)(C)NC(=O)[C@@H](N)Cc1c[nH]cn1)[C@@H](C)O)[C@@H](C)O)C(C)C)C(=O)N[C@@H](C)C(=O)N[C@@H](Cc1c[nH]c2ccccc12)C(=O)N[C@@H](CC(C)C)C(=O)N[C@H](C(=O)N[C@@H](CCCNC(=N)N)C(=O)NCC(=O)N[C@@H](CCCCNC(=O)COCCOCCNC(=O)COCCOCCNC(=O)CC[C@H](NC(=O)CCCCCCCCCOc1cccc(C(=O)O)c1)C(=O)O)C(=O)N[C@@H](CCCCNC(=O)COCCOCCNC(=O)COCCOCCNC(=O)CC[C@H](NC(=O)CCCCCCCCCOc1cccc(C(=O)O)c1)C(=O)O)C(=O)O)C(C)C` [Comparative 1A]: the EC50 on human GLP-1 receptor [1] amounted to 8.1 pM. Also, the IC50 at human GLP-1 receptor [2] (setting [3]) was determined as 116 nM; on human GLP-1 receptor [2] (setting [4]), 0.318 nM.
For `CC[C@H](C)[C@H](NC(=O)[C@H](Cc1ccccc1)NC(=O)[C@H](CCC(=O)O)NC(=O)[C@H](CCCNC(=N)N)NC(=O)[C@H](C)NC(=O)[C@H](C)NC(=O)[C@H](CCC(N)=O)NC(=O)[C@H](CCC(=O)O)NC(=O)[C@H](CCC(=O)O)NC(=O)[C@H](CC(C)C)NC(=O)[C@H](Cc1ccc(O)cc1)NC(=O)[C@H](CO)NC(=O)[C@H](CO)NC(=O)[C@@H](NC(=O)[C@H](CC(=O)O)NC(=O)[C@H](CO)NC(=O)[C@@H](NC(=O)[C@H](Cc1ccccc1)NC(=O)[C@@H](NC(=O)CNC(=O)[C@H](CCC(=O)O)NC(=O)C(C)(C)NC(=O)[C@@H](N)Cc1c[nH]cn1)[C@@H](C)O)[C@@H](C)O)C(C)C)C(=O)N[C@@H](C)C(=O)N[C@@H](Cc1c[nH]c2ccccc12)C(=O)N[C@@H](CC(C)C)C(=O)N[C@H](C(=O)N[C@@H](CCCNC(=N)N)C(=O)NCC(=O)N[C@@H](CCCCNC(=O)COCCOCCNC(=O)COCCOCCNC(=O)COCCOCCNC(=O)COCCOCCNC(=O)CC[C@H](NC(=O)CCCCCCCCCCCCC(=O)O)C(=O)O)C(=O)N[C@@H](CCCCNC(=O)COCCOCCNC(=O)COCCOCCNC(=O)COCCOCCNC(=O)COCCOCCNC(=O)CC[C@H](NC(=O)CCCCCCCCCCCCC(=O)O)C(=O)O)C(=O)O)C(C)C` [Comparative 7A] the same measures were 2.6 pM, 31.5 nM and 0.744 nM.
Regarding `CC[C@H](C)[C@H](NC(=O)[C@H](Cc1ccccc1)NC(=O)[C@H](CCC(=O)O)NC(=O)[C@H](CCCNC(=N)N)NC(=O)[C@H](C)NC(=O)[C@H](C)NC(=O)[C@H](CCC(N)=O)NC(=O)[C@H](CCC(=O)O)NC(=O)[C@H](CCC(=O)O)NC(=O)[C@H](CC(C)C)NC(=O)[C@H](Cc1ccc(O)cc1)NC(=O)[C@H](CO)NC(=O)[C@H](CO)NC(=O)[C@@H](NC(=O)[C@H](CC(=O)O)NC(=O)[C@H](CO)NC(=O)[C@@H](NC(=O)[C@H](Cc1ccccc1)NC(=O)[C@@H](NC(=O)CNC(=O)[C@H](CCC(=O)O)NC(=O)[C@H](Cc1c[nH]c2ccccc12)NC(=O)[C@@H](N)Cc1c[nH]cn1)[C@@H](C)O)[C@@H](C)O)C(C)C)C(=O)N[C@@H](C)C(=O)N[C@@H](Cc1c[nH]c2ccccc12)C(=O)N[C@@H](CC(C)C)C(=O)N[C@H](C(=O)N[C@@H](CCCNC(=N)N)C(=O)NCC(=O)N[C@@H](CCCCNC(=O)COCCOCCNC(=O)COCCOCCNC(=O)CC[C@H](NC(=O)CCCCCCCCCCOc1ccc(C(=O)O)cc1)C(=O)O)C(=O)N[C@@H](CCCCNC(=O)COCCOCCNC(=O)COCCOCCNC(=O)CC[C@H](NC(=O)CCCCCCCCCCOc1ccc(C(=O)O)cc1)C(=O)O)C(=O)O)C(C)C` [Example 8, N{Epsilon-36}-[2-[2-[2-[[2-[2-[2-[[(4S)-4-carboxy-4-[11-(4-carboxyphenoxy)undecanoylamino]butanoyl]amino]ethoxy]ethoxy]acetyl]amino]ethoxy]ethoxy]acetyl],N{Epsilon-37}-[2-[2-[2-[[2-[2-[2-[[(4S)-4-carboxy-4-[11-(4-carboxyphenoxy)undecanoylamino]butanoyl]amino]ethoxy]ethoxy]acetyl]amino]ethoxy]ethoxy]acetyl]-[Trp8,Glu22,Arg26,Arg34,Lys36,Lys37]-GLP-1-(7-37)-peptide] (H-HWEGTFTSDVSSYLEEQAAREFIAWLVRGK([AEEA-AEEA-γGlu-Undecanoyl(11-OPh(4-COOH))])K([AEEA-AEEA-γGlu-Undecanoyl(11-OPh(4-COOH))])-OH; N-terminus and C-terminus assumed), the concentration for half-maximal inhibition (IC50) on human GLP-1 receptor [2] (GLP-1 receptor binding High HSA IC50 (nM), high HSA (2.0% (w/v) final assay concentration)) amounted to 170 nM.
With `CC[C@H](C)[C@H](NC(=O)[C@H](Cc1ccccc1)NC(=O)[C@H](CCC(=O)O)NC(=O)[C@H](CCCNC(=N)N)NC(=O)[C@H](C)NC(=O)[C@H](C)NC(=O)[C@H](CCC(N)=O)NC(=O)[C@H](CCC(=O)O)NC(=O)[C@H](CCC(=O)O)NC(=O)[C@H](CC(C)C)NC(=O)[C@H](Cc1ccc(O)cc1)NC(=O)[C@H](CO)NC(=O)[C@H](CO)NC(=O)[C@@H](NC(=O)[C@H](CC(=O)O)NC(=O)[C@H](CO)NC(=O)[C@@H](NC(=O)[C@H](Cc1ccccc1)NC(=O)[C@@H](NC(=O)CNC(=O)[C@H](CCC(=O)O)NC(=O)[C@H](Cc1c[nH]c2ccccc12)NC(=O)[C@@H](N)Cc1c[nH]cn1)[C@@H](C)O)[C@@H](C)O)C(C)C)C(=O)N[C@@H](C)C(=O)N[C@@H](Cc1c[nH]c2ccccc12)C(=O)N[C@@H](CC(C)C)C(=O)N[C@H](C(=O)N[C@@H](CCCNC(=N)N)C(=O)NCC(=O)N[C@@H](CCCNC(=N)N)C(=O)N[C@@H](CCCCNC(=O)COCCOCCNC(=O)COCCOCCNC(=O)[C@H](CCCCNC(=O)COCCOCCNC(=O)COCCOCCNC(=O)COCCOCCNC(=O)COCCOCCNC(=O)CC[C@H](NC(=O)[C@H]1CC[C@H](CNC(=O)CCCCCCCCCCCCCCCCCCC(=O)O)CC1)C(=O)O)NC(=O)COCCOCCNC(=O)COCCOCCNC(=O)COCCOCCNC(=O)COCCOCCNC(=O)CC[C@H](NC(=O)[C@H]1CC[C@H](CNC(=O)CCCCCCCCCCCCCCCCCCC(=O)O)CC1)C(=O)O)C(=O)O)C(C)C` [Example 12], the IC50 at human GLP-1 receptor [2] (setting [5]) stood at 3.16 nM.
Same read-out and setting: with `CC[C@H](C)[C@H](NC(=O)[C@H](Cc1ccccc1)NC(=O)[C@H](CCC(=O)O)NC(=O)[C@H](CCCNC(=N)N)NC(=O)[C@H](C)NC(=O)[C@H](C)NC(=O)[C@H](CCC(N)=O)NC(=O)[C@H](CCC(=O)O)NC(=O)[C@H](CCC(=O)O)NC(=O)[C@H](CC(C)C)NC(=O)[C@H](Cc1ccc(O)cc1)NC(=O)[C@H](CO)NC(=O)[C@H](CO)NC(=O)[C@@H](NC(=O)[C@H](CC(=O)O)NC(=O)[C@H](CO)NC(=O)[C@@H](NC(=O)[C@H](Cc1ccccc1)NC(=O)[C@@H](NC(=O)CNC(=O)[C@H](CCC(=O)O)NC(=O)[C@H](Cc1c[nH]c2ccccc12)NC(=O)[C@@H](N)Cc1c[nH]cn1)[C@@H](C)O)[C@@H](C)O)C(C)C)C(=O)N[C@@H](C)C(=O)N[C@@H](Cc1c[nH]c2ccccc12)C(=O)N[C@@H](CC(C)C)C(=O)N[C@H](C(=O)N[C@@H](CCCNC(=N)N)C(=O)NCC(=O)N[C@@H](CCCNC(=N)N)C(=O)N[C@@H](CCCCNC(=O)COCCOCCNC(=O)COCCOCCNC(=O)CN(CCCNC(=O)COCCOCCNC(=O)COCCOCCNC(=O)COCCOCCNC(=O)COCCOCCNC(=O)CC[C@H](NC(=O)[C@H]1CC[C@H](CNC(=O)CCCCCCCCCCCCCCCCCCC(=O)O)CC1)C(=O)O)CCCNC(=O)COCCOCCNC(=O)COCCOCCNC(=O)COCCOCCNC(=O)COCCOCCNC(=O)CC[C@H](NC(=O)[C@H]1CC[C@H](CNC(=O)CCCCCCCCCCCCCCCCCCC(=O)O)CC1)C(=O)O)C(=O)O)C(C)C` [Example 13] the figure was 0.818 nM.

The term EC50 denotes the concentration that produces a half-maximal response. By IC50 is commonly meant the concentration needed to halve the response being measured.
